Results taken from patent EP0758883B1, “FUSOGENIC LIPOSOMES AND METHODS OF MAKING AND USING SAME” (THE LIPOSOME COMPANY, INC., priority 1994, dated 1995).

What was measured:
[1] = Lipid-mixing fusion assay (RET fluorescent probe dilution), EPC/Chol liposomes; settings: plateau after dissipation of the pH gradient with 100 mM ammonium acetate, complete mixing would give 80%
Procedure: Fusion was monitored by the decrease in resonance energy transfer (RET) resulting from fluorescent probe dilution, as described by Struck et al. (1981). […] The external buffer was 20 mM HEPES (150 mM NaCl, pH 7.5). […] Labeled and unlabeled liposomes were mixed in a 1:3 ratio, and diluted to 0.2 mM total lipid. External buffer was exchanged for 300 mM sucrose, 1 mM citrate, pH 4.0, on Sephadex G-25 columns before diluting preparations to 10 mM lipid. For fusion assays, 20 µl of fluorescently labeled liposomes, and 60 µl unlabeled liposomes, were added to 3.92 ml of 20 mM HEPES, 150 mM NaCl, pH 7.5. After 5 min. of incubation at room temperature, a 3 ml aliquot was added to a cuvette, and the fluorescence was monitored over 5 minutes. Excitation and emission wavelengths were 465 and 535 nm, respectively, and an emission 530 nm cutoff filter was used. […] The percent change in fluorescence (% F/ Fmax) was determined by assigning zero fluorescence (F0) to a trace with no ammonium acetate added and Fmax to a trace measured after adding 100 µl of 25 mM Triton X-100, so that: % ( F/ Fmax ) = 100 x ((F-F0 )/(Fmax -F0 )) [formula] […]
(§1) Membrane fusion was monitored by a loss in RET between the fluorescently labeled lipids NBD-PE and Rh-PE. When liposomes containing both of these labels fuse with unlabeled liposomes, the resulting dilution of the fluorescent probes gives Increased fluorescence for NBD-PE.

[2] = Lipid-mixing fusion assay (RET fluorescent probe dilution), EPC/DOPE/Chol liposomes; settings: for fusogenic capacity (fusion rate): 5 mole % of each aminolipid in EPC/DOPE/Chol (35:20:45) liposomes, Figure 9, in words
Procedure: Fusion was monitored by the decrease in resonance energy transfer (RET) resulting from fluorescent probe dilution, as described by Struck et al. (1981). […] The external buffer was 20 mM HEPES (150 mM NaCl, pH 7.5). […] Labeled and unlabeled liposomes were mixed in a 1:3 ratio, and diluted to 0.2 mM total lipid. External buffer was exchanged for 300 mM sucrose, 1 mM citrate, pH 4.0, on Sephadex G-25 columns before diluting preparations to 10 mM lipid. For fusion assays, 20 µl of fluorescently labeled liposomes, and 60 µl unlabeled liposomes, were added to 3.92 ml of 20 mM HEPES, 150 mM NaCl, pH 7.5. After 5 min. of incubation at room temperature, a 3 ml aliquot was added to a cuvette, and the fluorescence was monitored over 5 minutes. Excitation and emission wavelengths were 465 and 535 nm, respectively, and an emission 530 nm cutoff filter was used. To dissipate the gradient and induce fusion, ammonium acetate was added to a final concentration of 100 mM at 30 seconds. The percent change in fluorescence (% F/ Fmax) was determined by assigning zero fluorescence (F0) to a trace with no ammonium acetate added and Fmax to a trace measured after adding 100 µl of 25 mM Triton X-100, so that: % ( F/ Fmax ) = 100 x ((F-F0 )/(Fmax -F0 )) [formula]
To study the effect of aminolipid structure on the fusion of EPC/Chol/DOPE liposomes (35:20:45) liposomes were prepared with 5 mole % of the indicated aminolipid (AL-1-AL-6), an internal pH 4.0, 300 mM sodium citrate buffer, and an external 20 mM HEPES buffer (150 mM NaCl, pH 7.5). Fusion assays were carried out as described above.
as §1

[3] = Lipid asymmetry (transbilayer distribution) by TNS fluorescence; assay type: physicochemical; settings: 10 mole % in EPC/Chol (55:45), internal pH 4, external pH 7.5; after four minutes
[4] = TNS fluorescence titration for ionizable lipid pKa in liposomal bilayers; settings: aminolipid incorporated into liposomes; for % Charged at pH 7.5: from TNS fluorescence titrations

CCCCCCCC/C=C\CCCCCCCC(=O)OCC(CN(C)C)OC(=O)CCCCCCC/C=C\CCCCCCCC (racemic) [AL-1, 1-N,N-dimethylamino dioleoyl propane]
ΔF/ΔFmax ([1]; 10 mole % AL-1 in EPC/Chol (55:45)): ~3%
ΔF/ΔFmax ([1]; 20 mole % AL-1 in EPC/Chol (55:45)): ~3%
ΔF/ΔFmax ([2]; 10 mole % AL-1 in EPC/DOPE/Chol (30:25:45), over 5 minutes after dissipation of the pH gradient): ~10%
ΔF/ΔFmax ([2]; 10 mole % AL-1 in EPC/DOPE/Chol (35:20:45), after 5 minutes): over 5%
ΔF/ΔFmax ([2]; about 5 mole % AL-1 in EPC/DOPE/Chol (35:20:45), over the first 5 minutes after dissipation of the pH gradient): greater than 10%
aminolipid moved to the inner monolayer [3]: virtually all
fraction of neutral species at pH 7.5 [4]: 11%
% Charged at pH 7.5 [4]: 11%

CCCCCCCC/C=C\CCCCCCCC(=O)OCC(O)CN(C)C (racemic) [AL-2, ±-1-oleoyl-2-hydroxy-3-N,N-dimethylamino propane]
fusogenic capacity (fusion rate) [2]: little Increase in liposome fusion
% Charged at pH 7.5 [4]: 54%

CCCCCCCC/C=C\CCCCCCCC(=O)OCC(CN(C)C)OC(C)=O (racemic) [AL-3]
fusogenic capacity (fusion rate) [2]: substantially greater fusion rate
fraction of neutral species at pH 7.5 [4]: 16%
% Charged at pH 7.5 [4]: 16%

CCCCCCCC/C=C\CCCCCCCC(=O)OCC(CN(C)C)OC(=O)CCC (racemic) [AL-4]
fusogenic capacity (fusion rate) [2]: further increases in the fusion rate
% Charged at pH 7.5 [4]: 13%

CCCCCCCC/C=C\CCCCCCCC(=O)OCC(CN(C)C)OC(=O)CCCCCCCCC (racemic) [AL-5]
fusogenic capacity (fusion rate) [2]: further increases in the fusion rate
% Charged at pH 7.5 [4]: 14%

CCCCCCCCCC(=O)OCC(CN(C)C)OC(=O)CCCCCCCCC (racemic) [AL-6, ±-1,2-didecanoyl-1-N,N-dimethylamino propane]
fusogenic capacity (fusion rate) [2]: only limited mixing
% Charged at pH 7.5 [4]: 17%
